Experimental data taken from PubChem BioAssay AID1963843 (Molecular Pharmacology Branch, DTP, NCI, 2024).

System: 616215-338-R-J1-PDC complex spheroid viability
Assay: Anticancer human tumor 616215-338-R-J1-PDC patient-derived colon adenocarcinoma cell line growth inhibition [POLQ]
Details: for IC50: curve of first compound; for viability, T/C: stronger effect = lower value
In short: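 PDC + HUVEC + MSC complex spheroids; POLQ inhibitors ± partner drugs; top conc. at/near clinical Cmax, else 10 microM (SN-38 1 microM), half-log dilutions; 37 degrees C, 5% CO2.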

[1] = second compound 0.0316 µM, first compound 0.0316 µM
[2] = second compound 0.0316 µM, first compound 0.1 µM
[3] = second compound 0.0316 µM, first compound 0.316 µM
[4] = second compound 0.0316 µM, first compound 1 µM
[5] = second compound 0.0316 µM, first compound 3.16 µM
[6] = second compound 0.0316 µM, first compound 10 µM
[7] = second compound 0.1 µM, first compound 0.0316 µM
[8] = second compound 0.1 µM, first compound 0.1 µM
[9] = second compound 0.1 µM, first compound 0.316 µM
[10] = second compound 0.1 µM, first compound 1 µM
[11] = second compound 0.1 µM, first compound 3.16 µM
[12] = second compound 0.1 µM, first compound 10 µM
[13] = second compound 0.316 µM, first compound 0.0316 µM
[14] = second compound 0.316 µM, first compound 0.1 µM
[15] = second compound 0.316 µM, first compound 0.316 µM
[16] = second compound 0.316 µM, first compound 1 µM
[17] = second compound 0.316 µM, first compound 3.16 µM
[18] = second compound 0.316 µM, first compound 10 µM
[19] = second compound 1 µM, first compound 0.0316 µM
[20] = second compound 1 µM, first compound 0.1 µM
[21] = second compound 1 µM, first compound 0.316 µM
[22] = second compound 1 µM, first compound 1 µM
[23] = second compound 1 µM, first compound 3.16 µM
[24] = second compound 1 µM, first compound 10 µM
[25] = second compound 3.16 µM, first compound 0.0316 µM
[26] = second compound 3.16 µM, first compound 0.1 µM
[27] = second compound 3.16 µM, first compound 0.316 µM
[28] = second compound 3.16 µM, first compound 1 µM
[29] = second compound 3.16 µM, first compound 3.16 µM
[30] = second compound 3.16 µM, first compound 10 µM
[31] = second compound 10 µM, first compound 0.0316 µM
[32] = second compound 10 µM, first compound 0.1 µM
[33] = second compound 10 µM, first compound 0.316 µM
[34] = second compound 10 µM, first compound 1 µM
[35] = second compound 10 µM, first compound 3.16 µM
[36] = second compound 10 µM, first compound 10 µM
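Further: spheroids exposed to compounds for one week before readout.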
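Wherever viability, T/C is given: percent viability relative to DMSO vehicle wells taken as 100%.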

`O=c1[nH]cc(F)c(=O)[nH]1` + Cc1cccc(N(C)C(=O)C2C(O)CCN2c2nc(C)cc(C(F)(F)F)c2C#N)c1 was tested. Which IC50 (second compound 0.0316 µM) did it give?
Its IC50 is > 10 µM.

And the IC50 (second compound 0.1 µM)?
The IC50 was > 10 µM.

And the IC50 (second compound 0.316 µM)?
The IC50 was > 10 µM.

What about the IC50 (second compound 1 µM) of the same compound?
The IC50 was > 10 µM.

And the IC50 (second compound 3.16 µM)?
Its IC50 is > 10 µM.

And the IC50 (second compound 10 µM)?
The IC50 was > 10 µM.

What about the viability, T/C [1] of the same compound?
The viability, T/C was 92.1%.

And the viability, T/C [2]?
The viability, T/C was 108%.

What about the viability, T/C [3] of the same compound?
The viability, T/C was 69.8%.

And the viability, T/C [4]?
The viability, T/C was 68.6%.

And the viability, T/C [5]?
Its viability, T/C is 61.2%.

What about the viability, T/C [6] of the same compound?
Its viability, T/C is 56.3%.

And the viability, T/C [7]?
The viability, T/C was 101%.

What about the viability, T/C [8] of the same compound?
The viability, T/C was 108%.

What about the viability, T/C [9] of the same compound?
The viability, T/C was 68.7%.

And the viability, T/C [10]?
Its viability, T/C is 61.7%.

What about the viability, T/C [11] of the same compound?
Its viability, T/C is 60.1%.

What about the viability, T/C [12] of the same compound?
Its viability, T/C is 63.4%.

And the viability, T/C [13]?
The viability, T/C was 102%.

What about the viability, T/C [14] of the same compound?
Its viability, T/C is 116%.

What about the viability, T/C [15] of the same compound?
The viability, T/C was 75.6%.

What about the viability, T/C [16] of the same compound?
The viability, T/C was 57.5%.

What about the viability, T/C [17] of the same compound?
The viability, T/C was 56.9%.

What about the viability, T/C [18] of the same compound?
The viability, T/C was 66.8%.

And the viability, T/C [19]?
The viability, T/C was 106%.

And the viability, T/C [20]?
The viability, T/C was 99.7%.

What about the viability, T/C [21] of the same compound?
Its viability, T/C is 68.6%.

And the viability, T/C [22]?
The viability, T/C was 65.1%.

What about the viability, T/C [23] of the same compound?
The viability, T/C was 56.2%.

What about the viability, T/C [24] of the same compound?
The viability, T/C was 58.2%.

What about the viability, T/C [25] of the same compound?
The viability, T/C was 99.9%.

What about the viability, T/C [26] of the same compound?
Its viability, T/C is 102%.

What about the viability, T/C [27] of the same compound?
The viability, T/C was 70%.

And the viability, T/C [28]?
Its viability, T/C is 63.6%.

What about the viability, T/C [29] of the same compound?
Its viability, T/C is 59.9%.

And the viability, T/C [30]?
The viability, T/C was 64.2%.

And the viability, T/C [31]?
Its viability, T/C is 97.6%.

And the viability, T/C [32]?
Its viability, T/C is 106%.

What about the viability, T/C [33] of the same compound?
Its viability, T/C is 70.3%.

And the viability, T/C [34]?
Its viability, T/C is 54.9%.

What about the viability, T/C [35] of the same compound?
Its viability, T/C is 54.5%.

And the viability, T/C [36]?
Its viability, T/C is 59.6%.

Which IC50 (second compound 0.0316 µM) does the source give for `CNCc1ccc(-c2[nH]c3cc(F)cc4c3c2CCNC4=O)cc1` + COC1C(OC(N)=O)C(O)C(Oc2ccc3c(O)c(NC(=O)c4ccc(O)c(CC=C(C)C)c4)c(=O)oc3c2C)OC1(C)C here?
The IC50 was > 10 µM.

What about the IC50 (second compound 0.1 µM) of the same compound?
The IC50 was > 10 µM.

What about the IC50 (second compound 0.316 µM) of the same compound?
Its IC50 is > 10 µM.

And the IC50 (second compound 1 µM)?
The IC50 was > 10 µM.

And the IC50 (second compound 3.16 µM)?
Its IC50 is > 10 µM.

What about the IC50 (second compound 10 µM) of the same compound?
The IC50 was > 10 µM.

What about the viability, T/C [1] of the same compound?
The viability, T/C was 98.7%.

And the viability, T/C [2]?
The viability, T/C was 99.8%.

What about the viability, T/C [3] of the same compound?
Its viability, T/C is 106%.

And the viability, T/C [4]?
The viability, T/C was 111%.

And the viability, T/C [5]?
The viability, T/C was 107%.

What about the viability, T/C [6] of the same compound?
Its viability, T/C is 93.3%.

What about the viability, T/C [7] of the same compound?
The viability, T/C was 102%.

And the viability, T/C [8]?
The viability, T/C was 102%.

And the viability, T/C [9]?
The viability, T/C was 98.7%.

And the viability, T/C [10]?
Its viability, T/C is 99.5%.

What about the viability, T/C [11] of the same compound?
Its viability, T/C is 101%.

What about the viability, T/C [12] of the same compound?
The viability, T/C was 83.9%.

What about the viability, T/C [13] of the same compound?
Its viability, T/C is 107%.

And the viability, T/C [14]?
The viability, T/C was 113%.

And the viability, T/C [15]?
The viability, T/C was 115%.

And the viability, T/C [16]?
The viability, T/C was 105%.

And the viability, T/C [17]?
Its viability, T/C is 105%.

And the viability, T/C [18]?
The viability, T/C was 83.2%.

And the viability, T/C [19]?
Its viability, T/C is 105%.

And the viability, T/C [20]?
Its viability, T/C is 106%.

And the viability, T/C [21]?
The viability, T/C was 101%.

And the viability, T/C [22]?
The viability, T/C was 102%.

What about the viability, T/C [23] of the same compound?
The viability, T/C was 109%.

What about the viability, T/C [24] of the same compound?
The viability, T/C was 76.2%.

What about the viability, T/C [25] of the same compound?
Its viability, T/C is 106%.

What about the viability, T/C [26] of the same compound?
The viability, T/C was 101%.

What about the viability, T/C [27] of the same compound?
The viability, T/C was 106%.

What about the viability, T/C [28] of the same compound?
Its viability, T/C is 109%.

What about the viability, T/C [29] of the same compound?
The viability, T/C was 117%.

And the viability, T/C [30]?
The viability, T/C was 58.9%.

And the viability, T/C [31]?
Its viability, T/C is 109%.

What about the viability, T/C [32] of the same compound?
Its viability, T/C is 101%.

And the viability, T/C [33]?
Its viability, T/C is 97.6%.

What about the viability, T/C [34] of the same compound?
Its viability, T/C is 104%.

And the viability, T/C [35]?
Its viability, T/C is 105%.

What about the viability, T/C [36] of the same compound?
Its viability, T/C is 55%.
